Source: US20220323383A1, “SMALL-MOLECULAR ADJUVANTS AND IMPLEMENTATIONS THEREOF” (JAWAHARLAL NEHRU CENTRE FOR ADVANCED SCIENTIFIC RESEARCH, priority 2019, published 2022)

Experiments:
Type in all cases: cell-based
A. baumannii R674 [1] = assay: Chequerboard combination efficacy of adjuvant with antibiotics
Experimental: (§1) All the solvents were of reagent grade, which were distilled and dried before its use. All the reagents were purchased from Sigma-Aldrich, Alfa-Aesar, S.D. Fine, Avra and Spectrochem, and were used without further purification. Analytical thin layer chromatography (TLC) was performed on E. Merck TLC plates pre-coated with silica gel 60 F254 and visualization was carried out using UV light and Iodine. Column chromatography was performed on silica gel (60-120 mesh) using different ratio of chloroform and methanol solvent system. Nuclear magnetic resonance spectra were recorded on Bruker (AV-400) 400 MHz spectrometer in deuterated solvents. Mass spectra were obtained using 6538-UHD Accurate mass Q-TOF LC-MS instrument. For optical density measurement during bacteriology experiments, Tecan Infinite Pro series M200 Microplate Reader was used. Bacterial strains, A. baumannii (R674), P. aeruginosa (R590), E. coli (R3336) and K. pneumoniae (R3934) were used for the studies.
(§2) The combination efficacy with antibiotics from different classes and individual antibacterial activity of the synthesized adjuvants was evaluated against the above mentioned MDR and NDM-1 strains of Gram-negative bacteria. All the bacteria were grown in peptone. The bacterial samples were freeze dried and stored at −80° C. 3 μl of these stocks were added to 3 mL of peptone and the culture was grown for 6 h at 37° C. prior to the experiments.
(§3) All synthesized compounds were assayed for their antibacterial activity in combination with antibiotics in a modified chequerboard micro-dilution broth format. Stock solutions were made by serially diluting the compounds using autoclaved millipore water. The bacterial freeze dried stock samples were stored at −80° C. About 3 μL of these stocks were added to about 3 mL of the respective broth and the culture was grown for about 6 h at about 37° C. with prior to the experiments. This 6 h grown culture gives about 10^8 cfu/mL in case of A. baumannii R674, P. aeruginosa R590, E. coli R3336 and K. pneumoniae R3934 which were determined by spread plating method. This 6 h grown culture was diluted to give effective cell concentration of 10^5 cfu/mL, and then used for the chequerboard assay. Adjuvants and antibiotics were serially diluted in two-fold, in sterile millipore water. 25 μL of these serial dilutions of the antibiotics and 25 μL of compounds were added to the wells of 96 well plate followed by the addition of about 150 μL of bacterial solution (˜10^5 cfu/mL). The plates were then incubated at about 37° C., 150 rpm in the incubator and O.D at 600 nm was recorded at 24 h using TECAN (Infinite series, M200 pro) Plate Reader. The wells with similar OD as the media control contained the required concentration of the antibiotic and adjuvant for antibacterial efficacy. The potentiation ability of the adjuvants was determined by calculating the potentiation factor and the Fractional Inhibitory concentration (FIC) index. Fractional Inhibitory Concentration (FIC) is expressed as, FIC=[X]/MICX, where [X] is the lowest inhibitory concentration of antibiotic in the presence of the adjuvant. Whereas FIC index is expressed as, FICI=FICantibiotic+FICadjuvant. The values of FIC index give an insight about the nature of the combination. Potentiation factor which means fold-reduction in the MIC of the antibiotic, when used in combination with the adjuvant was also determined. Potentiation factor=[Minimum inhibitory concentration (MIC) of antibiotic in absence of adjuvant]/[MIC of antibiotic in presence of adjuvant]. […] The combination efficacies of adjuvants with various antibiotics are furnished in Table 1. It should be noted that various other resistant strains of bacteria (Gram-positive and Gram-negative) can be tested with a number of other antibiotics to check the potentiation capacity of the adjuvants.

E. coli R3336 [2] = assay: as above
Experimental: as §1, §2, §3

K. pneumoniae R3934 [3] = assay: as above
Experimental: as §1, §2, §3

P. aeruginosa R590 [4] = assay: as above; conditions: P. aeruginosa R590
Experimental: as §1, §2, §3

A. baumannii R674 [5] = assay: Individual antibacterial activity (MIC) of adjuvants; conditions: adjuvant alone, A. baumannii R674
Experimental: as §2, §3

E. coli R3336 [6] = assay: as above; conditions: Escherichia coli, R3336, read-out: MIC against clinical isolates of bacteria
Experimental: as §2, §3

K. pneumoniae R3934 [7] = assay: as above; conditions: Klebsiella pneumoniae; adjuvant alone; K. pneumoniae R3934; read-out: MIC against clinical isolates of bacteria
Experimental: as §2, §3

P. aeruginosa R590 [8] = assay: as above; conditions: adjuvant alone, P. aeruginosa R590
Experimental: as §2, §3

human RBCs = assay: Haemolytic activity; conditions: concentration at which 50% of human blood cells are lysed; 1 h at 37° C.
Experimental: Erythrocytes were isolated from freshly drawn, heparanized human blood and re-suspended to 5 vol % in PBS (pH 7.4). In a 96-well microtiter plate, 150 μl of erythrocyte suspension was added to 50 μl of serially diluted compound. Two controls were made, one without compound and other with 50 μl of 1 vol % solution of Triton X-100. The plate was incubated for 1 h at 37° C. The plate was then centrifuged at 3,500 rpm for 5 min, 100 μl of the supernatant from each well was transferred to a fresh 96-well microtiter plate, and A540 was measured. Percentage of hemolysis was determined as (A−A0)/(Atotal−A0)×100, where A is the absorbance of the test well, A0 the absorbance of the negative controls (without compound), and Atotal the absorbance of 100% hemolysis wells (with Triton X-100), all at 540 nm.
Toxicity studies of the compounds were done on freshly drawn human RBCs. Toxicity of the compounds were defined by their HC50 values (Table 2), i.e. the concentration of compound at which 50% of the blood cells are lysed.

NCCCC[C@H](N)C(=O)NCCCCCCN(CCCCCCNC(=O)[C@@H](N)CCCCN)CC(=O)NC1C2CC3CC(C2)CC1C3 (some centres unmarked) [Compound 15, N-(adamantan-2-yl)-2-[N′,N′-{bis-(6-^LLys) amido)hexyl} amino] ethanamide pentakistrifluoroacetate]
MIC of antibiotic in presence of adjuvant (A. baumannii R674 [1]; antibiotic Ampicillin): No potentiation | FICI (A. baumannii R674 [1]; antibiotic Ciprofloxacin): 1.25 | MIC of antibiotic in presence of adjuvant (A. baumannii R674 [1]; antibiotic Ciprofloxacin): 64 µg/mL | Potentiation factor (A. baumannii R674 [1]; antibiotic Ciprofloxacin): 4 | FICI (A. baumannii R674 [1]; antibiotic Erythromycin): 0.1875 | MIC of antibiotic in presence of adjuvant (A. baumannii R674 [1]; antibiotic Erythromycin): 32 µg/mL | Potentiation factor (A. baumannii R674 [1]; antibiotic Erythromycin): 16 | FICI (A. baumannii R674 [1]; antibiotic Fusidic acid): <0.07 | MIC of antibiotic in presence of adjuvant (A. baumannii R674 [1]; antibiotic Fusidic acid): <0.5 µg/mL | Potentiation factor (A. baumannii R674 [1]; antibiotic Fusidic acid): >128 | FICI (A. baumannii R674 [1]; antibiotic Linezolid): 1.125 | Potentiation factor (A. baumannii R674 [1]; antibiotic Linezolid): 8 | FICI (A. baumannii R674 [1]; antibiotic Minocycline): 0.5625 | MIC of antibiotic in presence of adjuvant (A. baumannii R674 [1]; antibiotic Minocycline): 0.5 µg/mL | Potentiation factor (A. baumannii R674 [1]; antibiotic Minocycline): 16 | FICI (A. baumannii R674 [1]; antibiotic Rifampicin): 0.1289 | MIC of antibiotic in presence of adjuvant (A. baumannii R674 [1]; antibiotic Rifampicin): 0.25 µg/mL | Potentiation factor (A. baumannii R674 [1]; antibiotic Rifampicin): 256 | MIC of antibiotic in presence of adjuvant (A. baumannii R674 [1]; antibiotic Streptomycin): No potentiation | FICI (A. baumannii R674 [1]; antibiotic Tetracycline): 0.5156 | MIC of antibiotic in presence of adjuvant (A. baumannii R674 [1]; antibiotic Tetracycline): 2 µg/mL | Potentiation factor (A. baumannii R674 [1]; antibiotic Tetracycline): 64 | FICI (A. baumannii R674 [1]; antibiotic Vancomycin): 0.5625 | Potentiation factor (A. baumannii R674 [1]; antibiotic Vancomycin): 2 | FICI (E. coli R3336 [2]; antibiotic Fusidic acid): <0.1875 | Potentiation factor (E. coli R3336 [2]; antibiotic Fusidic acid): >16 | MIC of antibiotic in presence of adjuvant (E. coli R3336 [2]; antibiotic Linezolid): No potentiation | FICI (E. coli R3336 [2]; antibiotic Minocycline): <0.0469 | MIC of antibiotic in presence of adjuvant (E. coli R3336 [2]; antibiotic Minocycline): 0.5 µg/mL | Potentiation factor (E. coli R3336 [2]; antibiotic Minocycline): 64 | FICI (E. coli R3336 [2]; antibiotic Rifampicin): <0.0469 | MIC of antibiotic in presence of adjuvant (E. coli R3336 [2]; antibiotic Rifampicin): 16 µg/mL | Potentiation factor (E. coli R3336 [2]; antibiotic Rifampicin): 32 | FICI (K. pneumoniae R3934 [3]; antibiotic Fusidic acid): <0.0781 | MIC of antibiotic in presence of adjuvant (K. pneumoniae R3934 [3]; antibiotic Fusidic acid): 8 µg/mL | Potentiation factor (K. pneumoniae R3934 [3]; antibiotic Fusidic acid): 64 | MIC of antibiotic in presence of adjuvant (K. pneumoniae R3934 [3]; antibiotic Linezolid): No potentiation | FICI (K. pneumoniae R3934 [3]; antibiotic Minocycline): <0.07 | MIC of antibiotic in presence of adjuvant (K. pneumoniae R3934 [3]; antibiotic Minocycline): 0.5 µg/mL | Potentiation factor (K. pneumoniae R3934 [3]; antibiotic Minocycline): 128 | FICI (K. pneumoniae R3934 [3]; antibiotic Rifampicin): <0.1289 | MIC of antibiotic in presence of adjuvant (K. pneumoniae R3934 [3]; antibiotic Rifampicin): 2 µg/mL | Potentiation factor (K. pneumoniae R3934 [3]; antibiotic Rifampicin): 256 | Potentiation factor (P. aeruginosa R590 [4]; antibiotic Chloramphenicol): 4 | FICI (P. aeruginosa R590 [4]; antibiotic Colistin): 0.3125 | MIC of antibiotic in presence of adjuvant (P. aeruginosa R590 [4]; antibiotic Colistin): 0.25 µg/mL | Potentiation factor (P. aeruginosa R590 [4]; antibiotic Colistin): 4 | MIC of antibiotic in presence of adjuvant (P. aeruginosa R590 [4]; antibiotic Daptomycin): No potentiation | FICI (P. aeruginosa R590 [4]; antibiotic Fusidic acid): <0.1289 | MIC of antibiotic in presence of adjuvant (P. aeruginosa R590 [4]; antibiotic Fusidic acid): <0.25 µg/mL | Potentiation factor (P. aeruginosa R590 [4]; antibiotic Fusidic acid): >256 | FICI (P. aeruginosa R590 [4]; antibiotic Linezolid): 0.2812 | Potentiation factor (P. aeruginosa R590 [4]; antibiotic Linezolid): 4 | FICI (P. aeruginosa R590 [4]; antibiotic Minocycline): 0.5 | MIC of antibiotic in presence of adjuvant (P. aeruginosa R590 [4]; antibiotic Minocycline): 2 µg/mL | Potentiation factor (P. aeruginosa R590 [4]; antibiotic Minocycline): 4 | FICI (P. aeruginosa R590 [4]; antibiotic Rifampicin): <0.126 | MIC of antibiotic in presence of adjuvant (P. aeruginosa R590 [4]; antibiotic Rifampicin): <0.125 µg/mL | Potentiation factor (P. aeruginosa R590 [4]; antibiotic Rifampicin): >1024 | FICI (P. aeruginosa R590 [4]; antibiotic Tetracycline): 0.5078 | MIC of antibiotic in presence of adjuvant (P. aeruginosa R590 [4]; antibiotic Tetracycline): 2 µg/mL | Potentiation factor (P. aeruginosa R590 [4]; antibiotic Tetracycline): 128 | MIC (A. baumannii R674 [5]; Acinetobacter baumannii, read-out: MIC against clinical isolates of bacteria): 128 µg/mL | MIC (E. coli R3336 [6]): > 512 µg/mL | MIC (K. pneumoniae R3934 [7]): > 512 µg/mL | MIC (P. aeruginosa R590 [8]; Pseudomonas aeruginosa, read-out: MIC against clinical isolates of bacteria): 64 µg/mL | HC50 (human RBCs): >1024 µg/mL

NCCCN(CCCN)CC(=O)NC1C2CC3CC(C2)CC1C3.O=C(O)C(F)(F)F.O=C(O)C(F)(F)F.O=C(O)C(F)(F)F (centres unmarked) [Compound 6, N-(Adamantan-2-yl)-2-[N′,N′-{bis-(3-amino)propyl}amino] ethanamide tris(trifluoroacetate)]
FICI (A. baumannii R674 [1]; antibiotic Rifampicin): <0.06 | MIC of antibiotic in presence of adjuvant (A. baumannii R674 [1]; antibiotic Rifampicin): <0.25 µg/mL | Potentiation factor (A. baumannii R674 [1]; antibiotic Rifampicin): >256 | MIC of antibiotic in presence of adjuvant (A. baumannii R674 [1]; antibiotic Tetracycline): >64 µg/mL | Potentiation factor (A. baumannii R674 [1]; antibiotic Tetracycline): <2 | FICI (P. aeruginosa R590 [4]; antibiotic Rifampicin): <0.06 | MIC of antibiotic in presence of adjuvant (P. aeruginosa R590 [4]; antibiotic Rifampicin): <0.25 µg/mL | Potentiation factor (P. aeruginosa R590 [4]; antibiotic Rifampicin): >512 | MIC of antibiotic in presence of adjuvant (P. aeruginosa R590 [4]; antibiotic Tetracycline): >64 µg/mL | Potentiation factor (P. aeruginosa R590 [4]; antibiotic Tetracycline): <4 | MIC against clinical isolates of bacteria (A. baumannii R674 [5]): 512 µg/mL | MIC against clinical isolates of bacteria (P. aeruginosa R590 [8]): 512 µg/mL | HC50 (human RBCs): >1024 µg/mL
